In ChEMBL document CHEMBL4043287, “A Structure-Activity Relationship Study of Bitopic N6-Substituted Adenosine Derivatives as Biased Adenosine A1 Receptor Agonists” (J Med Chem, 2018):
Calls of active or inactive are those of the source. The calls are words filed in the database; no cut-off is given here.

Columns and labels:
[1] = target: T1, Adenosine receptor A3 (Homo sapiens) (UniProt P0DMS8); assay: Agonist activity at human A3AR expressed in FlpIn-CHO cells assessed as inhibition of forskolin-stimulated cAMP accumulation preincubated for 10 mins followed by forskolin addition measured after 30 mins by Alphascreen assay relative to control; type: functional, cell-based
T1 sequence (whole entry): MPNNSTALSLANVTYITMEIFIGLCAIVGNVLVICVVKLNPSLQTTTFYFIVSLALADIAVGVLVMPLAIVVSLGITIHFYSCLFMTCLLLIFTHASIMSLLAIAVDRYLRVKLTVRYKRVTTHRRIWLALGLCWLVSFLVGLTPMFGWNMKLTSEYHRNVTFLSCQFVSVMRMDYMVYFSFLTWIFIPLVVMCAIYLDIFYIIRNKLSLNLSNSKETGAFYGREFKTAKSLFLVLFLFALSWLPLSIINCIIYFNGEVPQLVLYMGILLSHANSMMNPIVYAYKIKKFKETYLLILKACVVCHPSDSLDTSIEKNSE

[2] = target: T2, Adenosine receptor A1 (Homo sapiens, UniProt P30542); assay: Agonist activity at human A1AR expressed in FlpIn-CHO cells assessed as intracellular calcium mobilization by Fluo-4 dye-based fluorescence assay relative to control; type: cell-based
T2 sequence (P30542 whole entry): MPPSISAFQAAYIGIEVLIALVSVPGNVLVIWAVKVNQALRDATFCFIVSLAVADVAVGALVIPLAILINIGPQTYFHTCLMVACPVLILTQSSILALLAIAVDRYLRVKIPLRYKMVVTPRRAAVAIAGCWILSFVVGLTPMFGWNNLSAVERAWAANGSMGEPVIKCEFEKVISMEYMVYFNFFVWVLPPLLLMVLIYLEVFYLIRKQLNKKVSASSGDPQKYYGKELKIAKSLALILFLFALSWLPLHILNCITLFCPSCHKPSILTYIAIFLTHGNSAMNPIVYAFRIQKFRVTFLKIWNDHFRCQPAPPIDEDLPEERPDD

[3] = target: T2, Adenosine receptor A1; assay: Agonist activity at human A1AR expressed in FlpIn-CHO cells assessed as inhibition of forskolin-stimulated cAMP accumulation preincubated for 10 mins followed by forskolin addition measured after 30 mins by Alphascreen assay; type: functional, cell-based
[4] = target: Adenosine receptor A2a (Homo sapiens, UniProt P29274); assay: Agonist activity at human A2A-AR expressed in FlpIn-CHO cells assessed as inhibition of forskolin-stimulated cAMP accumulation preincubated for 40 mins followed by forskolin addition measured after 30 mins by Alphascreen assay
Adenosine receptor A2a, sequence (P29274 whole entry): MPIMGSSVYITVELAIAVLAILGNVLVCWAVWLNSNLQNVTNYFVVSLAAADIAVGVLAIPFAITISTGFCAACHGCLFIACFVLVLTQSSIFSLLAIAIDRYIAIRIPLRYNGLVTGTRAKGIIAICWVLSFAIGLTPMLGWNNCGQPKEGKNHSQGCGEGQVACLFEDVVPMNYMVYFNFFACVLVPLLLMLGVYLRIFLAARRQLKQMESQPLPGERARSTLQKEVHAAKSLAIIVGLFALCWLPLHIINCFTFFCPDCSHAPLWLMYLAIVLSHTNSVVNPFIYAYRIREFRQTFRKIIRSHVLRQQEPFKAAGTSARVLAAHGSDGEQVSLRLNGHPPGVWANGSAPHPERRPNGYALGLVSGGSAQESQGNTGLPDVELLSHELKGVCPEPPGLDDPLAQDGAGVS

[5] = target: T2, Adenosine receptor A1; assay: Agonist activity at human A1AR expressed in FlpIn-CHO cells assessed as intracellular calcium mobilization by measuring agonist transduction coefficient by Fluo-4 dye-based fluorescence assay; type: cell-based
[6] = target: T3, Adenosine receptor A2b (Homo sapiens, UniProt P29275); assay: Agonist activity at human A2BAR expressed in FlpIn-CHO cells assessed as […] cAMP accumulation preincubated for 40 mins followed by forskolin addition measured after 30 mins by Alphascreen assay; type: functional, cell-based
T3 sequence (P29275 whole entry): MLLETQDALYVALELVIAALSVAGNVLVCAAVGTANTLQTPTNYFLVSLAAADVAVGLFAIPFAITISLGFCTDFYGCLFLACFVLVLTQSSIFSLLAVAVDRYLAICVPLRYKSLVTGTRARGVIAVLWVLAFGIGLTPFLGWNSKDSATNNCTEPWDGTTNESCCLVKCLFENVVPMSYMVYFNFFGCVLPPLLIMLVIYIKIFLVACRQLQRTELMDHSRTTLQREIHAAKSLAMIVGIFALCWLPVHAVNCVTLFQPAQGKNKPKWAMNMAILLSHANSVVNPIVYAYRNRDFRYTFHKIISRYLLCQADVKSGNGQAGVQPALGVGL

[7] = target: T4, Adenosine receptor A3 (Homo sapiens, UniProt P0DMS8); assay: Agonist activity at human A3AR expressed in FlpIn-CHO cells assessed as inhibition of forskolin-stimulated cAMP accumulation preincubated for 10 mins followed by forskolin addition measured after 30 mins by Alphascreen assay
T4 sequence (P0DMS8 whole entry): T1 sequence (whole entry)

[8] = target: T2, Adenosine receptor A1; assay: Agonist activity at human A1AR expressed in FlpIn-CHO cells assessed as intracellular calcium mobilization by Fluo-4 dye-based fluorescence assay; type: cell-based
[9] = target: T5, Adenosine receptor A2b (Homo sapiens) (UniProt P29275); assay: Agonist activity at human A2BAR expressed in FlpIn-CHO cells assessed as […] cAMP accumulation preincubated for 40 mins followed by forskolin addition measured after 30 mins by Alphascreen assay relative to control; type: functional, cell-based
T5 sequence (whole entry): T3 sequence (P29275 whole entry)

[10] = target: T1, Adenosine receptor A3 (Homo sapiens); assay: Agonist activity at human A3AR expressed in FlpIn-CHO cells assessed as inhibition of forskolin-stimulated cAMP accumulation up to 10 uM preincubated for 10 mins followed by forskolin addition measured after 30 mins by Alphascreen assay; type: functional, cell-based

Nc1cc(-c2cccc(C(F)(F)F)c2)c(-c2ccc(C(=O)NCCCCCCNc3ncnc4c3ncn4[C@@H]3O[C@H](CO)[C@@H](O)[C@H]3O)cc2)s1
Emax [1]: 58%
Emax [2]: 42%
EC50 [3]: 38 nM
EC50 [4]: 2690 nM
log(activity) [5]: 6.86
EC50 [6]: 447 nM
EC50 [7]: 282 nM
EC50 [8]: 110 nM
Emax [9]: 28%

CCNC(=O)[C@H]1O[C@@H](n2cnc3c(NCCCCCCNC(=O)c4ccc(-c5sc(N)c(C(=O)c6ccccc6)c5-c5cccc(C(F)(F)F)c5)cc4)ncnc32)[C@H](O)[C@@H]1O
Emax [1]: 75%
Emax [2]: 16%
EC50 [3]: 97.7 nM
EC50 [4]: 56.2 nM
log(activity) [5]: 6.33
EC50 [6]: 75.9 nM
EC50 [7]: 1410 nM
EC50 [8]: 56.2 nM
Emax [9]: 38%

Nc1sc(-c2cccc(C(=O)NCCCCCCNc3ncnc4c3ncn4[C@@H]3O[C@H](CO)[C@@H](O)[C@H]3O)c2)c(-c2cccc(C(F)(F)F)c2)c1C(=O)c1ccccc1
Emax [1]: 80%
Emax [2]: 48%
EC50 [3]: 105 nM
EC50 [4]: 148 nM
log(activity) [5]: 6.98
EC50 [6]: 35.5 nM
EC50 [7]: 123 nM
EC50 [8]: 93.3 nM
Emax [9]: 43%

Nc1sc(-c2ccc(C(=O)NCCCCCCCNc3ncnc4c3ncn4[C@@H]3O[C@H](CO)[C@@H](O)[C@H]3O)cc2)c(-c2cccc(C(F)(F)F)c2)c1C(=O)c1ccccc1
Emax [1]: 56%
Emax [2]: 28%
EC50 [3]: 22.9 nM
EC50 [4]: 4900 nM
log(activity) [5]: 5.58
EC50 [6]: 468 nM
EC50 [7]: 331 nM
EC50 [8]: 200 nM
Emax [9]: 38%

Nc1nc(NCCCCCCNC(=O)c2ccc(-c3sc(N)c(C(=O)c4ccccc4)c3-c3cccc(C(F)(F)F)c3)cc2)c2ncn([C@@H]3O[C@H](CO)[C@@H](O)[C@H]3O)c2n1
Emax [2]: 34%
EC50 [3]: 1350 nM
EC50 [4]: 759 nM
log(activity) [5]: 6.15
inhibition [10]: inactive
EC50 [6]: 97.7 nM
EC50 [8]: 257 nM
Emax [9]: 43%

Nc1sc(-c2ccc(C(=O)NCCCCCCNc3ncnc4c3ncn4[C@@H]3O[C@H](CO)[C@@H](O)[C@H]3O)cc2)cc1C(=O)c1ccccc1
Emax [1]: 85%
Emax [2]: 49%
EC50 [3]: 41.7 nM
EC50 [4]: 355 nM
log(activity) [5]: 7.43
EC50 [6]: 224 nM
EC50 [7]: 447 nM
EC50 [8]: 29.5 nM
Emax [9]: 40%

Nc1sc(-c2ccc(C(=O)NCCCCCCNc3nc(Cl)nc4c3ncn4[C@@H]3O[C@H](CO)[C@@H](O)[C@H]3O)cc2)c(-c2cccc(C(F)(F)F)c2)c1C(=O)c1ccccc1
Emax [2]: 20%
EC50 [3]: 224 nM
EC50 [4]: 145 nM
log(activity) [5]: 6.32
inhibition [10]: inactive
EC50 [6]: 18.6 nM
EC50 [8]: 135 nM
Emax [9]: 39%

O=C(NCCCCCCNc1ncnc2c1ncn2[C@@H]1O[C@H](CO)[C@@H](O)[C@H]1O)c1ccc(-c2scc(C(=O)c3ccccc3)c2-c2cccc(C(F)(F)F)c2)cc1
Emax [2]: 40%
EC50 [3]: 110 nM
EC50 [4]: 2880 nM
log(activity) [5]: 5.74
EC50 [6]: 148 nM
EC50 [7]: > 1000 nM
EC50 [8]: 562 nM
Emax [9]: 49%

O=C(NCCCCCCNc1ncnc2c1ncn2[C@@H]1O[C@H](CO)[C@@H](O)[C@H]1O)c1ccc(-c2sccc2-c2cccc(C(F)(F)F)c2)cc1
Emax [1]: 26%
Emax [2]: 49%
EC50 [3]: 170 nM
EC50 [4]: 646 nM
log(activity) [5]: 7.03
EC50 [6]: 91.2 nM
EC50 [7]: 347 nM
EC50 [8]: 77.6 nM
Emax [9]: 44%

O=C(NCCCCCCNc1ncnc2c1ncn2[C@@H]1O[C@H](CO)[C@@H](O)[C@H]1O)c1cccc(-c2cccs2)c1
Emax [1]: 107%
Emax [2]: 49%
EC50 [3]: 234 nM
EC50 [4]: 1320 nM
log(activity) [5]: 7.38
EC50 [6]: 17.8 nM
EC50 [7]: 832 nM
EC50 [8]: 35.5 nM
Emax [9]: 42%

O=C(NCCCCCCNc1ncnc2c1ncn2[C@@H]1O[C@H](CO)[C@@H](O)[C@H]1O)c1cccc(-c2cc(C(=O)c3ccccc3)cs2)c1
Emax [1]: 74%
Emax [2]: 39%
EC50 [3]: 138 nM
EC50 [4]: 437 nM
log(activity) [5]: 6.91
EC50 [6]: 158 nM
EC50 [7]: 407 nM
EC50 [8]: 87.1 nM
Emax [9]: 27%

Nc1sc(-c2ccc(C(=O)NCCCCCCNc3ncnc4c3ncn4[C@@H]3O[C@H](CO)[C@@H](O)[C@H]3O)cc2)c(-c2cccc(C(F)(F)F)c2)c1C(=O)c1ccccc1
EC50 [4]: 2290 nM

CC(=O)Nc1sc(-c2ccc(C(=O)NCCCCCCNc3ncnc4c3ncn4[C@@H]3O[C@H](CO)[C@@H](O)[C@H]3O)cc2)c(-c2cccc(C(F)(F)F)c2)c1C(=O)c1ccccc1
Emax [1]: 60%
Emax [2]: 20%
EC50 [3]: 138 nM
EC50 [4]: 2340 nM
log(activity) [5]: 5.02
EC50 [6]: 617 nM
EC50 [7]: 447 nM
EC50 [8]: 891 nM
Emax [9]: 44%

Nc1sc(-c2ccccc2C(=O)NCCCCCCNc2ncnc3c2ncn3[C@@H]2O[C@H](CO)[C@@H](O)[C@H]2O)c(-c2cccc(C(F)(F)F)c2)c1C(=O)c1ccccc1
Emax [1]: 103%
Emax [2]: 43%
EC50 [3]: 1290 nM
log(activity) [5]: 5.74
EC50 [6]: 288 nM
EC50 [7]: 282 nM
EC50 [8]: 1350 nM
Emax [9]: 46%

Nc1ccc(-c2cccc(C(=O)NCCCCCCNc3ncnc4c3ncn4[C@@H]3O[C@H](CO)[C@@H](O)[C@H]3O)c2)s1
Emax [1]: 72%
Emax [2]: 47%
EC50 [4]: 1070 nM
log(activity) [5]: 7.4
EC50 [6]: 60.3 nM
EC50 [7]: 64.6 nM
EC50 [8]: 34.7 nM
Emax [9]: 45%

CCNC(=O)[C@H]1O[C@@H](n2cnc3c(N)ncnc32)[C@H](O)[C@@H]1O [NECA]
Emax [1]: 97%
Emax [2]: 54%

Nc1sc(-c2ccc(C(=O)NCCCCCNc3ncnc4c3ncn4[C@@H]3O[C@H](CO)[C@@H](O)[C@H]3O)cc2)c(-c2cccc(C(F)(F)F)c2)c1C(=O)c1ccccc1
Emax [2]: 31%
EC50 [3]: 95.5 nM
EC50 [4]: 3630 nM
log(activity) [5]: 6.11
EC50 [6]: 63.1 nM
EC50 [7]: > 1000 nM
EC50 [8]: 74.1 nM
Emax [9]: 52%
